Data: PMC9005681, “Use of AD Informer Set compounds to explore validity of novel targets in Alzheimer's disease pathology” (Alzheimer's & Dementia : Translational Research & Clinical …, 2022)
Where “and” joins values, the source holds several entries; their conditions need not be identical. Equal values may be shown once.

Experiments:
[1] = aqueous, neutral pH (7.4); cited from earlier work
[2] = system: cellular system; design: method as in column References for potency and dosing (the 5th table c13); settings: published data; References for potency and dosing; cited from earlier work
[3] = target: T1, cloned human or rodent CNS receptors, channels, and transporters (PDSP panel) (Homo sapiens, UniProt P08172); experiment: PDSP GPCR panel primary binding assays at 10 μM; settings: Receptor M2, primary assay, 10 μM
T1 construct: expressed in transfected cells
T1 sequence (P08172 1-466): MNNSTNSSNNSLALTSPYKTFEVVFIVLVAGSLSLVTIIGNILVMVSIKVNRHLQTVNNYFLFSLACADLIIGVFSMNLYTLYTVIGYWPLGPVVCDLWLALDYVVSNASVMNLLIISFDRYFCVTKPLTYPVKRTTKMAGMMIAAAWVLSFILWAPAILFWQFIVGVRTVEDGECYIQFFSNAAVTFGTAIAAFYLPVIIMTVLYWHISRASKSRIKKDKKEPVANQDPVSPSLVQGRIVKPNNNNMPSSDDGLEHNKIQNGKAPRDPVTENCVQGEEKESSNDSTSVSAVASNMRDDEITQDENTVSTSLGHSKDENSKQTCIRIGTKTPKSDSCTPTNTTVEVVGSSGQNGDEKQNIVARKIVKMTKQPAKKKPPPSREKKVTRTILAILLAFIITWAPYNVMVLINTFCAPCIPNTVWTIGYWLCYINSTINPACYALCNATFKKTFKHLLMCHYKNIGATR
How it was run: (§1)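 PDSP panel of 46–47 cloned human or rodent CNS receptors, channels and transporters; radioligand displacement by compound at 10 μM, in quadruplicate. Where average displacement exceeded 50%, secondary binding followed as 11-point dose-response in triplicate (none for H3, PBR or GABAA).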

[4] = target: T2, cloned human or rodent CNS receptors, channels, and transporters (PDSP panel) (Homo sapiens, UniProt P23975); experiment: PDSP GPCR panel primary binding assays at 10 μM; settings: Receptor NET, primary assay, 10 μM
T2 construct: expressed in transfected cells
How it was run: as §1

[5] = target: T3, cloned human or rodent CNS receptors, channels, and transporters (PDSP panel) (Homo sapiens, UniProt P28222); experiment: PDSP GPCR panel primary binding assays at 10 μM; settings: Receptor 5-HT1B, primary assay, 10 μM
T3 construct: expressed in transfected cells
How it was run: as §1

[6] = target: T4, cloned human or rodent CNS receptors, channels, and transporters (PDSP panel) (Homo sapiens, UniProt P35462); experiment: PDSP GPCR panel primary binding assays at 10 μM; settings: Receptor D3, primary assay, 10 μM
T4 construct: expressed in transfected cells
How it was run: as §1

[7] = target: T5, cloned human or rodent CNS receptors, channels, and transporters (PDSP panel) (Homo sapiens, UniProt P41595); experiment: PDSP GPCR panel primary binding assays at 10 μM; settings: Receptor 5-HT2B, primary assay, 10 μM
T5 construct: expressed in transfected cells
How it was run: as §1

[8] = target: T6, cloned human or rodent CNS receptors, channels, and transporters (PDSP panel) (Homo sapiens, UniProt P08908); experiment: PDSP GPCR panel primary binding assays at 10 μM; settings: Receptor 5-HT1A, primary assay, 10 μM
T6 construct: expressed in transfected cells
T6 sequence (P08908 1-422): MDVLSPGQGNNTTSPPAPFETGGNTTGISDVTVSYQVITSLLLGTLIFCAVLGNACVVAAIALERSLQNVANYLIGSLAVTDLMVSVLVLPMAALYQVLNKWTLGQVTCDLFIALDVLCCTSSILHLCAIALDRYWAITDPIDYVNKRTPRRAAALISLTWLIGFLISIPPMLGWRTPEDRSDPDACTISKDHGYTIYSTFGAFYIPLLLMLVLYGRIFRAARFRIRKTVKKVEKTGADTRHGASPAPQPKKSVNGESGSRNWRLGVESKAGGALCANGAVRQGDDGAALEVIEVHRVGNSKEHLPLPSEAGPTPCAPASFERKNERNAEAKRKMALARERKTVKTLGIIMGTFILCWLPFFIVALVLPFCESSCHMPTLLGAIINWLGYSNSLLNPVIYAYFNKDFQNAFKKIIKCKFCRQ
How it was run: as §1

[9] = target: T7, cloned human or rodent CNS receptors, channels, and transporters (PDSP panel) (Homo sapiens, UniProt P21918); experiment: PDSP GPCR panel primary binding assays at 10 μM; settings: Receptor D5, primary assay, 10 μM
T7 construct: expressed in transfected cells
How it was run: as §1

[10] = target: T8, cloned human or rodent CNS receptors, channels, and transporters (PDSP panel) (Homo sapiens, UniProt P50406); experiment: PDSP GPCR panel primary binding assays at 10 μM; settings: Receptor 5-HT6, primary assay, 10 μM
T8 construct: expressed in transfected cells
How it was run: as §1

[11] = target: T9, cloned human or rodent CNS receptors, channels, and transporters (PDSP panel) (Homo sapiens, UniProt P14416); experiment: PDSP GPCR panel primary binding assays at 10 μM; settings: Receptor D2, primary assay, 10 μM
T9 construct: expressed in transfected cells
How it was run: as §1

[12] = Snapshot IV PK in CD1 mice; assay type: in vivo
How it was run: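 Single 3 mg/kg IV dose in CD1 mice, 2 per cohort; pooled plasma analysed at 0.5, 1, 2 and 4 h post-dose.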

T4 sequence (P35462 whole entry): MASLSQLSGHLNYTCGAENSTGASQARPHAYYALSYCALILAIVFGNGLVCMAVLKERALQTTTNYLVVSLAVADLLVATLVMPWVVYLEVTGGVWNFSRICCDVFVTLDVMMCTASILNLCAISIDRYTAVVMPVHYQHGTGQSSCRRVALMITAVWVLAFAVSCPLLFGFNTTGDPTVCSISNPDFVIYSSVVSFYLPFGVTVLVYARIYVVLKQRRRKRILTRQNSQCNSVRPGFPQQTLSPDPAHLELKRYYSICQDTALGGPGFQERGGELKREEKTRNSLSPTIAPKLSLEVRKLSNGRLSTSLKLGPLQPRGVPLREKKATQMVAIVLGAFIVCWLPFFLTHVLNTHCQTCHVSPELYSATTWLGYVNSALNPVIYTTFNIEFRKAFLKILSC
T7 sequence (P21918 whole entry): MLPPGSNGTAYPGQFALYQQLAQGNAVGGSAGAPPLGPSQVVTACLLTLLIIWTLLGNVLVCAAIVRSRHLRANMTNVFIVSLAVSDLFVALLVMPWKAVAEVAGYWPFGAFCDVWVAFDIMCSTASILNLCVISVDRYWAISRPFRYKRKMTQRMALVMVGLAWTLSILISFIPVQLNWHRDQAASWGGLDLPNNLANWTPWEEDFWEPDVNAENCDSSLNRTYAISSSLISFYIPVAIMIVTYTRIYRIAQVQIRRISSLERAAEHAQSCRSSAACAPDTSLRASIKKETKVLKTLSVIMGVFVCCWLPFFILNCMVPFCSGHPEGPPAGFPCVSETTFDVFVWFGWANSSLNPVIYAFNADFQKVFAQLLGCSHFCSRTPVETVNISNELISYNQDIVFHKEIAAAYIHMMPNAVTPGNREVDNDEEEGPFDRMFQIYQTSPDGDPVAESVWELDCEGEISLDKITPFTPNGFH
T2 sequence (P23975 whole entry): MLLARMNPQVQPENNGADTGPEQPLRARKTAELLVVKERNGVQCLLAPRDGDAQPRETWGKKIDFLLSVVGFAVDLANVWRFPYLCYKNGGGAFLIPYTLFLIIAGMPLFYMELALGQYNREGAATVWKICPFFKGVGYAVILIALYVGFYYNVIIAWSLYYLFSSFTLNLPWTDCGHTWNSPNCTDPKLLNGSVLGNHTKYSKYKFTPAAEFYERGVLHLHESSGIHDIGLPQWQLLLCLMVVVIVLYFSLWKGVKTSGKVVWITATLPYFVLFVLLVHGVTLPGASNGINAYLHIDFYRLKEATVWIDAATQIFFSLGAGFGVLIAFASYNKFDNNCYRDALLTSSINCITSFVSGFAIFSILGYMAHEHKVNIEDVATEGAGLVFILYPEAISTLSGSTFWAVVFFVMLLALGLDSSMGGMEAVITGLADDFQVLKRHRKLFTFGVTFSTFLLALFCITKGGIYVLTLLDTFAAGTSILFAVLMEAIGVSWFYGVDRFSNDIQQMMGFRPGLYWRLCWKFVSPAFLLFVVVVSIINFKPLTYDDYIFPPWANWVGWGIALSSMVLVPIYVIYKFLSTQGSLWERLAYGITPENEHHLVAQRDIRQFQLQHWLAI
T5 sequence (P41595 whole entry): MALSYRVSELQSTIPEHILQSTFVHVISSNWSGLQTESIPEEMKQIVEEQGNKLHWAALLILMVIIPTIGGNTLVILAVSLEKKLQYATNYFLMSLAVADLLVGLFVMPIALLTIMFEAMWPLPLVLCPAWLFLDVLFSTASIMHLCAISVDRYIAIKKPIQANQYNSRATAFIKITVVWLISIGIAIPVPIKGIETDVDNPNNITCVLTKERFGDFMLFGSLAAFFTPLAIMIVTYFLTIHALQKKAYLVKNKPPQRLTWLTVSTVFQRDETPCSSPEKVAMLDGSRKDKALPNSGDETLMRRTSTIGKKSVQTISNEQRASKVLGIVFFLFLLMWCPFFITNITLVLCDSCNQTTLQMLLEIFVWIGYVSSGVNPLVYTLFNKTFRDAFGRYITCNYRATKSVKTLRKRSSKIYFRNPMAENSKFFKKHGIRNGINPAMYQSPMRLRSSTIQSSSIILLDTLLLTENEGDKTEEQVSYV
T8 sequence (P50406 whole entry): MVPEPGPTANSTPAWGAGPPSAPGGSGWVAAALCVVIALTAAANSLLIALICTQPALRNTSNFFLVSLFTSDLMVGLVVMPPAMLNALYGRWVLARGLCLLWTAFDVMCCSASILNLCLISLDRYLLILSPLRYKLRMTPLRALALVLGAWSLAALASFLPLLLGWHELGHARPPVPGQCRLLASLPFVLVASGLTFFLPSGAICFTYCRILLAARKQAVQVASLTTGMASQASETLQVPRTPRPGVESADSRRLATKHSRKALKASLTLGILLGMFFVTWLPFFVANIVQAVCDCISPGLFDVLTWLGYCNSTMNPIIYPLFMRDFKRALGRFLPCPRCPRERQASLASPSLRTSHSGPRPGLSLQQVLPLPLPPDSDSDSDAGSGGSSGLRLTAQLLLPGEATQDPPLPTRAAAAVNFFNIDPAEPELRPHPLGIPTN
T9 sequence (P14416 whole entry): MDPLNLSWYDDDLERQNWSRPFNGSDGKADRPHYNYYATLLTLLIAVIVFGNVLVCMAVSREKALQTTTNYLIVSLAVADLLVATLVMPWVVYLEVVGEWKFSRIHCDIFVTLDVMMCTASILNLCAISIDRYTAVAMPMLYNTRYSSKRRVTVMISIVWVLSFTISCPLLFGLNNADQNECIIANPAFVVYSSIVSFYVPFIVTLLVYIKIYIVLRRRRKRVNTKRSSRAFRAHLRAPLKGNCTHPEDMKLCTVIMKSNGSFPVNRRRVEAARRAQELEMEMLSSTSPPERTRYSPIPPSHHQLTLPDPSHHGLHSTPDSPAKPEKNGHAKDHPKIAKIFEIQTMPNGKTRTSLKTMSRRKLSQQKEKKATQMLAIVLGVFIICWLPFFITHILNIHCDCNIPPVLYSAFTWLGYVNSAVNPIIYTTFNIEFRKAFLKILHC
T3 sequence (P28222 whole entry): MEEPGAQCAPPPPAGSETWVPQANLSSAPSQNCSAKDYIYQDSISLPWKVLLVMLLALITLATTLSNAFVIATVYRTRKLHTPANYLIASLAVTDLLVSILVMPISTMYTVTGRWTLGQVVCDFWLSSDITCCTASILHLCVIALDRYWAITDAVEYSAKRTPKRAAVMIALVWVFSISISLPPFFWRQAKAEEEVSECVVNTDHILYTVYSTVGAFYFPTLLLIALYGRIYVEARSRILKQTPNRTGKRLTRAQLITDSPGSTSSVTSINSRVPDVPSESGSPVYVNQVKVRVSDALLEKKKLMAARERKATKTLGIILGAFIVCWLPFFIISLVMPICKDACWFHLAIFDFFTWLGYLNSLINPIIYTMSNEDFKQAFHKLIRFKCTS

## Cl.NC(=O)c1cnc(N[C@@H]2CCCC[C@@H]2N)nc1Nc1cccc(-n2nccn2)c1 [UNC10302682A, P505-15 (PRT06207 HCl)]
[1]
  Kinetic solubility: 118.2 µM
[2]
  Reported as cell active (<10 μM): Y (Published data supports that the compound is active in a cellular system when dosed at 10 μM (Y/N))
[3]
  Inhibition 1: -1.69%
  Inhibition 2: 2.24%
  Inhibition 3: -4.88%
  Inhibition 4: 1.51%
[3]; mean of Inhibition 1-4
  Mean %: -0.71%
[4]
  Inhibition 1: 84.07% and 84.11%
  Inhibition 2: 85.74% and 79.57%
  Inhibition 3: 83.91% and 77.54%
  Inhibition 4: 89.74%
[4]; mean of Inhibition 1-4
  Mean %: 85.87% and 80.58%
[5]
  Inhibition 1: 53.66%
  Inhibition 2: 22.41%
  Inhibition 3: 27.71%
  Inhibition 4: 32.24%
[5]; mean of Inhibition 1-4
  Mean %: 34.01%
[6]
  Inhibition 1: 15.21%
  Inhibition 2: 7.11%
  Inhibition 3: 21.57%
  Inhibition 4: 8.07%
[6]; mean of Inhibition 1-4
  Mean %: 12.99%
[7]
  Inhibition 1: 19.24%
  Inhibition 2: 3.3%
  Inhibition 3: -9.28%
  Inhibition 4: -13.48%
[7]; mean of Inhibition 1-4
  Mean %: -0.06%
[8]
  Inhibition 1: 35.42%
  Inhibition 2: 0.09%
  Inhibition 3: 1.29%
  Inhibition 4: 21.46%
[8]; mean of Inhibition 1-4
  Mean %: 14.57%
[9]
  Inhibition 1: 21.97%
  Inhibition 2: 17.01%
  Inhibition 3: 7.24%
  Inhibition 4: 14.53%
[9]; mean of Inhibition 1-4
  Mean %: 15.19%
[10]
  Inhibition 1: -1.07%
  Inhibition 2: -19.49%
  Inhibition 3: -2.98%
  Inhibition 4: -7.9%
[10]; mean of Inhibition 1-4
  Mean %: -7.86%
[11]
  Inhibition 1: 17.73%
  Inhibition 2: -4.34%
  Inhibition 3: 3.54%
  Inhibition 4: 5.97%
[11]; mean of Inhibition 1-4
  Mean %: 5.73%
[12]; CD1, mouse, plasma, iv, 3 mg/kg
  clearance: 49.7 mL/min/kg
[12]; CD1, plasma, mouse, 3.0 mg/kg
  Cmax: 595 ng/mL
  half-life: 1.64 h
[12]; CD1, plasma, mouse, 3.0 mg/kg, read-out: Vss
  Vd: 6.26 L/kg
